Laboratory results reported in patent US10131652B2, “Pyrimidinyloxy benzene derivatives as herbicides” (E. I. DU PONT DE NEMOURS AND COMPANY, priority 2014, dated 2018).
Where two headings read alike, the source gives them in different places.

Assays:
Assay type in all cases: in vivo
[1] = tested on: large (Lg) crabgrass (Digitaria sanguinalis); assay: Test D pre-/postemergence plant response; settings: Digitaria sanguinalis, pre-emergence, Preemergence
Procedure, shortened: (§1)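 Seeds were planted in a loam and sand blend and sprayed preemergence. In parallel, seedlings grown in peat moss/vermiculite medium were sprayed postemergence at 2 to 18 cm height. Both used a surfactant-containing non-phytotoxic solvent. Greenhouse ratings at 13 to 15 days used a 0–100 control scale.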

[2] = tested on: velvetleaf (Abutilon theophrasti); assay: Test D pre-/postemergence plant response; settings: Abutilon theophrasti; for pest or weed control at 16 g/ha: 16 g ai/ha; for pest or weed control at 31 g/ha: 31 g ai/ha; for pest or weed control at 62 g/ha: 62 g ai/ha; for pest or weed control at 125 g/ha: 125 g ai/ha
Procedure, shortened: as §1

[3] = tested on: johnsongrass (Sorghum halepense); assay: Test D pre-/postemergence plant response; settings: Sorghum halepense; for pest or weed control at 16 g/ha: 16 g ai/ha; for pest or weed control at 31 g/ha: 31 g ai/ha; for pest or weed control at 62 g/ha: 62 g ai/ha; for pest or weed control at 125 g/ha: 125 g ai/ha
Procedure, shortened: as §1

[4] = tested on: pigweed (Amaranthus retroflexus); assay: Test B pre-/postemergence plant response; settings: Amaranthus retroflexus, 240 h, read-out: Plant response rating, Pigweed; for pest or weed control at 125 g/ha: 125 g ai/ha; for pest or weed control at 500 g/ha: 500 g ai/ha
Procedure, shortened: (§2)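 Steps: plant seeds in loam soil–sand mix; spray soil preemergence, and in parallel spray 2–10 cm one- to two-leaf plants postemergence; hold ~10 days in greenhouse; visually rate injury against untreated controls (0 = no effect, 100 = complete control).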

[5] = tested on: wheat (Triticum aestivum); assay: Test B pre-/postemergence plant response; settings: Triticum aestivum, 240 h, read-out: Plant response rating, Wheat; for plant injury at 125 g/ha: 125 g ai/ha; for plant injury at 500 g/ha: 500 g ai/ha
Procedure, shortened: as §2

[6] = tested on: corn (Zea mays); assay: Test B pre-/postemergence plant response; settings: Zea mays, 240 h; for Corn plant response rating (crop injury, 0 = no effect, 100 = complete kill) at 125 g/ha: 125 g ai/ha; for Corn plant response rating (crop injury, 0 = no effect, 100 = complete kill) at 500 g/ha: 500 g ai/ha
Procedure, shortened: as §2

[7] = tested on: giant foxtail (Setaria faberii); assay: Test B pre-/postemergence plant response; settings: Setaria faberi, 240 h, read-out: Plant response rating, Foxtail, Giant; for pest or weed control at 125 g/ha: 125 g ai/ha; for pest or weed control at 500 g/ha: 500 g ai/ha
Procedure, shortened: as §2

[8] = tested on: barnyardgrass (Echinochloa crus-galli); assay: Test B pre-/postemergence plant response; settings: Echinochloa crus-galli, 240 h, read-out: Plant response rating, Barnyardgrass; for pest or weed control at 125 g/ha: 125 g ai/ha; for pest or weed control at 500 g/ha: 500 g ai/ha
Procedure, shortened: as §2

[9] = post-emergence, Postemergence, scale 0 to 100 (0 no effect, 100 complete control), read-out: Velvetleaf plant response rating
[10] = post-emergence, Postemergence, scale 0 to 100, 0 no effect, 100 complete control, read-out: Plant response rating, Velvetleaf
[11] = pre-emergence, Preemergence, scale 0 to 100 (0 no effect, 100 complete control), read-out: Plant response rating, Velvetleaf
[12] = post-emergence, Postemergence, scale 0 to 100 (0 no effect, 100 complete control), read-out: Johnsongrass plant response rating
[13] = post-emergence, Postemergence, scale 0 to 100, 0 no effect, 100 complete control, read-out: Plant response rating, Johnsongrass
[14] = pre-emergence, Preemergence, scale 0 to 100 (0 no effect, 100 complete control), read-out: Plant response rating, Johnsongrass
[15] = post-emergence, postemergence, 0 to 100 scale, 0 no effect, 100 complete control
[16] = post-emergence, Postemergence, 0 to 100 scale (0 no effect, 100 complete control)
[17] = pre-emergence, Preemergence, 0 to 100 scale where 0 is no effect and 100 is complete control

Structure (SMILES): FC(F)(F)c1cc(-c2ccccc2Oc2ncc(Cl)cn2)on1 [Compound 63, 5-chloro-2-[2-[3-(trifluoromethyl)-5-isoxazolyl]phenoxy]pyrimidine]
- pest or weed control at 125 g/ha ([1]; 125 g ai/ha, read-out: Plant response rating (scale 0 to 100), Crabgrass, Large): 100%
- pest or weed control at 16 g/ha ([1]; 16 g ai/ha, scale 0 to 100 (0 no effect, 100 complete control), read-out: Plant response rating, Crabgrass, Large): 65%
- pest or weed control at 31 g/ha ([1]; 31 g ai/ha, scale 0 to 100 (0 no effect, 100 complete control), read-out: Plant response rating, Crabgrass, Large): 98%
- pest or weed control at 62 g/ha ([1]; 62 g ai/ha, scale 0 to 100 (0 no effect, 100 complete control), read-out: Plant response rating, Crabgrass, Large): 98%
- pest or weed control at 16 g/ha [2, 9]: 10%
- pest or weed control at 31 g/ha [2, 9]: 25%
- pest or weed control at 62 g/ha [2, 10]: 40%
- pest or weed control at 125 g/ha [2, 10]: 40%
- pest or weed control at 125 g/ha ([2]; pre-emergence, Preemergence, read-out: Plant response rating (scale 0 to 100), Velvetleaf): 100%
- pest or weed control at 16 g/ha [2, 11]: 40%
- pest or weed control at 31 g/ha [2, 11]: 100%
- pest or weed control at 62 g/ha [2, 11]: 100%
- pest or weed control at 16 g/ha [3, 12]: 5%
- pest or weed control at 31 g/ha [3, 12]: 5%
- pest or weed control at 62 g/ha [3, 13]: 25%
- pest or weed control at 125 g/ha [3, 13]: 45%
- pest or weed control at 125 g/ha ([3]; pre-emergence, Preemergence, read-out: Plant response rating (scale 0 to 100), Johnsongrass): 85%
- pest or weed control at 16 g/ha [3, 14]: 5%
- pest or weed control at 31 g/ha [3, 14]: 35%
- pest or weed control at 62 g/ha [3, 14]: 70%
- pest or weed control at 125 g/ha [4, 15]: 100%
- pest or weed control at 500 g/ha [4, 16]: 100%
- pest or weed control at 125 g/ha [4, 17]: 100%
- pest or weed control at 500 g/ha [4, 17]: 100%
- plant injury at 125 g/ha [5, 15]: 0%
- plant injury at 500 g/ha [5, 16]: 50%
- plant injury at 125 g/ha [5, 17]: 20%
- plant injury at 500 g/ha [5, 17]: 40%
- Corn plant response rating (crop injury, 0 = no effect, 100 = complete kill) at 125 g/ha [6, 15]: 20%
- Corn plant response rating (crop injury, 0 = no effect, 100 = complete kill) at 500 g/ha [6, 16]: 20%
- Corn plant response rating (crop injury, 0 = no effect, 100 = complete kill) at 125 g/ha [6, 17]: 10%
- Corn plant response rating (crop injury, 0 = no effect, 100 = complete kill) at 500 g/ha [6, 17]: 30%
- pest or weed control at 125 g/ha [7, 15]: 70%
- pest or weed control at 500 g/ha [7, 16]: 80%
- pest or weed control at 125 g/ha [7, 17]: 100%
- pest or weed control at 500 g/ha [7, 17]: 100%
- pest or weed control at 125 g/ha [8, 15]: 80%
- pest or weed control at 500 g/ha [8, 16]: 100%
- pest or weed control at 125 g/ha [8, 17]: 90%
- pest or weed control at 500 g/ha [8, 17]: 100%
